Results published in patent publication US12371454B2, “Cyclic peptide compound having Kras inhibitory action” (priority 2019, dated 2025).
Starred links: 1 amine or outer side, 2 acyl side, 3 side chain; linkers in the order of their positions; H or OH if unused. Positions of bridges follow the written chain, without caps; N, C: chain ends. Non-standard residues stand in square brackets, D forms with d. Residues, ends and D or L forms follow the SMILES beside them. *: point of attachment. hPhe(3-Cl-4-CF3) = N[C@@H](CCc1ccc(C(F)(F)F)c(Cl)c1)C(=O)O; NMeAla(4-thiazolyl) = CN[C@@H](Cc1cscn1)C(=O)O; NMeAbu(4,4,4-F3) = CN[C@@H](CC(F)(F)F)C(=O)O; NMePhe(3-Me) = CN[C@@H](Cc1cccc(C)c1)C(=O)O; NMePhe(4-Me) = CN[C@@H](Cc1ccc(C)cc1)C(=O)O; NMeNle(6-CHF2) = CN[C@@H](CCCCC(F)F)C(=O)O; NMedβ3hAla = C[C@H](CC(=O)[*:2])N(C)[*:1]; NMeAla(cPent) = CN[C@@H](CC1CCCC1)C(=O)O; NMeGly(cPent) = CN[C@H](C(=O)O)C1CCCC1; NMeGly(cBu) = CN[C@H](C(=O)O)C1CCC1; NMeCha = CN[C@@H](CC1CCCCC1)C(=O)O; NMeChg = CN[C@H](C(=O)O)C1CCCCC1; NMeI = CC[C@H](C)[C@H](NC)C(=O)O; NMeD = CN[C@@H](CC(=O)O)C(=O)O; NMeL = CN[C@@H](CC(C)C)C(=O)O; NMeV = CN[C@H](C(=O)O)C(C)C; d(β3hA) = C[C@@H](N)CC(=O)O; Azetidin(1-yl) = C1CN(*)C1; NMeS = CN[C@@H](CO)C(=O)O; Ac6c = NC1(C(=O)O)CCCCC1; Morpholide = C1CN(*)CCO1; NMeA = CN[C@@H](C)C(=O)O; Piperidide = C1CCN(*)CC1; Ac5c = NC1(C(=O)O)CCCC1; Aze = O=C(O)[C@@H]1CCN1; Sar = CNCC(=O)O; Propyl = CCC*

Assays:
[1] = biological target: T1, Kras and SOS1 (biotin-tagged human Kras loaded with GDP, His-tagged human SOS1) (Homo sapiens, UniProt P01116, G12D); test: Protein-protein interaction inhibition between Kras and SOS1 (KrasGl2D-SOS PPI) using AlphaScreen; type: binding; conditions: AlphaScreen; biotin-tagged human Kras loaded with GDP, His-tagged human SOS1; read-out: KRAS G12D-SOS PPI IC50
T1 construct: made in house; host or cells: E. coli (stated for Kras only)
How it was run: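 AlphaScreen format: Ni donor beads capture His-SOS1, streptavidin acceptor beads capture biotinylated Kras (E. coli-expressed, GDP-loaded post-purification). Excite 680 nm, read 520-620 nm.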

[2] = system: Human pancreatic cancer cell line AsPC-1; test: Measurement of AsPC-1 cell growth inhibition (AsPC-1 CGI); type: cell-based; conditions: 96 h
How it was run: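 AsPC-1 cells in 15% FBS RPMI-1640 were exposed to test compound for 96 hours at 37° C, with CellTiter-Glo as endpoint.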

T1 sequence (P01116 1-188 isoform P01116-2 G12D): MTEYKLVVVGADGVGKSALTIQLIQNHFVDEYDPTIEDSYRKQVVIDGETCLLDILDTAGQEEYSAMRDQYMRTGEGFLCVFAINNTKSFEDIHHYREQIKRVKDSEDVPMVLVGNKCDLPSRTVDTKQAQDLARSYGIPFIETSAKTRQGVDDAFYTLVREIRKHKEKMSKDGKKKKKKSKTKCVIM

Row | SMILES | IC50 [1] [nM] | IC50 [2] [nM]
1 | CC[C@H](C)[C@@H]1NC(=O)[C@H](CC(C)C)N(C)C(=O)C[C@@H](C)N(C)C(=O)[C@H](C2CCCC2)N(C)C(=O)C2(CCCC2)NC(=O)[C@@H]2CCCN2C(=O)[C@H](CCc2ccc(C(F)(F)F)c(Cl)c2)NC(=O)CN(C)C(=O)[C@H](CC2CCCCC2)N(C)C(=O)CN(C)C(=O)CN(C)C1=O [Compound 420] (cyclo([Ac5c][NMeGly(cPent)][NMedβ3hAla][NMeL]I[Sar][Sar][NMeCha][Sar][hPhe(3-Cl-4-CF3)]P)) | 3.4 | 50 to 100
2 | CC[C@H](C)[C@@H]1NC(=O)[C@H](CCCCC(F)F)N(C)C(=O)C[C@@H](C(=O)N2CCCCC2)N(C)C(=O)[C@H](C2CCCCC2)N(C)C(=O)C2(CCCC2)NC(=O)[C@@H]2CCCN2C(=O)[C@H](CCc2ccc(C(F)(F)F)c(Cl)c2)NC(=O)CN(C)C(=O)[C@H](CC2CCCCC2)N(C)C(=O)CN(C)C(=O)CN(C)C1=O [Compound 425] ([NMeNle(6-CHF2)]I[Sar][Sar][NMeCha][Sar][hPhe(3-Cl-4-CF3)]P[Ac5c][NMeChg][NMeD]-Piperidide; lactam N-11) | 0.57 | 50 to 100
3 | CC[C@H](C)[C@@H]1NC(=O)[C@H](C2CCC2)N(C)C(=O)C[C@@H](C(=O)N2CCOCC2)N(C)C(=O)[C@H](C2CCCCC2)N(C)C(=O)C2(CCCC2)NC(=O)[C@@H]2CCCN2C(=O)[C@H](CCc2ccc(C(F)(F)F)c(Cl)c2)NC(=O)CN(C)C(=O)[C@H](CC2CCCC2)N(C)C(=O)CN(C)C(=O)CN(C)C1=O [Compound 434] ([NMeGly(cBu)]I[Sar][Sar][NMeAla(cPent)][Sar][hPhe(3-Cl-4-CF3)]P[Ac5c][NMeChg][NMeD]-Morpholide; lactam N-11) | 0.52 | 50 to 100
4 | CC[C@H](C)[C@@H]1NC(=O)[C@H](CC(C)C)N(C)C(=O)C[C@@H](C(=O)N2CCC2)N(C)C(=O)[C@H](C2CCCCC2)N(C)C(=O)C2(CCCC2)NC(=O)[C@@H]2CCCN2C(=O)[C@H](CCc2ccc(C(F)(F)F)c(Cl)c2)NC(=O)CN(C)C(=O)[C@H](CC2CCCCC2)N(C)C(=O)CN(C)C(=O)CN(C)C1=O [Compound 437] ([NMeL]I[Sar][Sar][NMeCha][Sar][hPhe(3-Cl-4-CF3)]P[Ac5c][NMeChg][NMeD]-{Azetidin(1-yl)}; lactam N-11) | 0.47 | 50 to 100
5 | CC[C@H](C)[C@@H]1NC(=O)[C@H](CC(C)C)N(C)C(=O)C[C@@H](C(=O)N2CCCCC2)N(C)C(=O)[C@H](C(C)C)N(C)C(=O)C2(CCCC2)NC(=O)[C@@H]2CCCN2C(=O)[C@H](CCc2ccc(C(F)(F)F)c(Cl)c2)NC(=O)CN(C)C(=O)[C@H](CC2CCCCC2)N(C)C(=O)CN(C)C(=O)CN(C)C1=O [Compound 438] ([NMeL]I[Sar][Sar][NMeCha][Sar][hPhe(3-Cl-4-CF3)]P[Ac5c][NMeV][NMeD]-Piperidide; lactam N-11) | 6 | 50 to 100
6 | CC[C@H](C)[C@@H]1NC(=O)[C@H](CC(C)C)N(C)C(=O)C[C@@H](C)NC(=O)[C@H](C(C)C)N(C)C(=O)C2(CCCCC2)NC(=O)[C@@H]2CCCN2C(=O)[C@H](CCc2ccc(C(F)(F)F)c(Cl)c2)NC(=O)CN(C)C(=O)[C@H](CC2CCCCC2)N(C)C(=O)CN(C)C(=O)CN(C)C1=O [Compound 439] (cyclo([Ac6c][NMeV][d(β3hA)][NMeL]I[Sar][Sar][NMeCha][Sar][hPhe(3-Cl-4-CF3)]P)) | 52 | 100 to 500
7 | CC[C@H](C)[C@@H]1NC(=O)[C@H](CC(C)C)N(C)C(=O)C[C@@H](C(=O)N(C)C)N(C)C(=O)[C@H]([C@@H](C)CC)N(C)C(=O)C2(CCCC2)NC(=O)[C@H](Cc2cscn2)N(C)C(=O)[C@H](CCc2ccc(C(F)(F)F)c(Cl)c2)NC(=O)CN(C)C(=O)[C@H](Cc2ccc(C)cc2)N(C)C(=O)[C@@H]2CCN2C(=O)[C@H](C)N(C)C1=O [Compound 441] ([NMeL]I[NMeA][Aze][NMePhe(4-Me)][Sar][hPhe(3-Cl-4-CF3)][NMeAla(4-thiazolyl)][Ac5c][NMeI][NMeD]-NMe2; lactam N-11) | 0.73 | 20 to 50
8 | CCCOC[C@H]1C(=O)N(C)CC(=O)N[C@@H](CCc2ccc(C(F)(F)F)c(Cl)c2)C(=O)N2CCC[C@H]2C(=O)NC2(CCCC2)C(=O)N(C)[C@@H](C2CCCCC2)C(=O)N(C)[C@H](C(=O)N2CCOCC2)CC(=O)N(C)[C@@H](CC(F)(F)F)C(=O)N[C@@H]([C@@H](C)CC)C(=O)N(C)CC(=O)N(C)CC(=O)N1C [Compound 445] ([NMeAbu(4,4,4-F3)]I[Sar][Sar][NMeS](Propyl)[Sar][hPhe(3-Cl-4-CF3)]P[Ac5c][NMeChg][NMeD]-Morpholide; lactam N-11) | 0.67 | 100 to 500
9 | CC[C@H](C)[C@@H]1NC(=O)[C@H](CC(C)C)N(C)C(=O)C[C@@H](C(=O)N(C)C)N(C)C(=O)[C@H](C2CCCC2)N(C)C(=O)C2(CCCC2)NC(=O)[C@H](Cc2cccc(C)c2)N(C)C(=O)[C@H](CCc2ccc(C(F)(F)F)c(Cl)c2)NC(=O)CN(C)C(=O)[C@H](CC2CCCCC2)N(C)C(=O)[C@@H]2CCN2C(=O)[C@H](C)N(C)C1=O [Compound 449] ([NMeL]I[NMeA][Aze][NMeCha][Sar][hPhe(3-Cl-4-CF3)][NMePhe(3-Me)][Ac5c][NMeGly(cPent)][NMeD]-NMe2; lactam N-11) | 30 | 100 to 500
